Assay results from the supplement of paper PMC10307832.

Experiments:
Experiment in all cases: relative viability (nuclei count vs DMSO), 5 days (fraction); higher = more cells survive
[1] = compound: CCn1c(-c2nonc2N)nc2c(C#CC(C)(C)O)ncc(OC[C@H]3CCCNC3)c21 + CS(=O)(=O)N1CCN(Cc2cc3nc(-c4cccc5[nH]ncc45)nc(N4CCOCC4)c3s2)CC1 [Pictilisib] (partner 1 µM)
Method in brief: (§1)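 Relative viability divides the nuclei count in treated wells by that in vehicle wells. Lung cancer cell lines were seeded in 1536-well plates, dosed by pin tool the next day, and fixed and stained after 5 days in one step with final 0.05% Triton X-100, 1% formaldehyde and 1 ug/ml Hoechst. Dosing was a single drug or a fixed anchor-drug dose plus five library-drug doses (not always all listed) in √10 steps, and values are medians of duplicate plates imaged at 4×.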

[2] = compound: CCn1c(-c2nonc2N)nc2c(C#CC(C)(C)O)ncc(OC[C@H]3CCCNC3)c21 + O=C(CCCCCCC(=O)Nc1ccccc1)NO [Vorinostat] (partner 1 µM)
Method in brief: as §1

[3] = compound: CCn1c(-c2nonc2N)nc2c(C#CC(C)(C)O)ncc(OC[C@H]3CCCNC3)c21 + CC(=O)Nc1cccc(-n2c(=O)n(C3CC3)c(=O)c3c(Nc4ccc(I)cc4F)n(C)c(=O)c(C)c32)c1 [Trametinib] (partner 0.02 µM)
Method in brief: as §1

BAM7 + Phenformin = compound: CCOC1=CC=CC=C1N=NC2=C(NN(C2=O)C3=NC(=CS3)C4=CC=CC=C4)C [BAM7] + N=C(N)NC(=N)NCCc1ccccc1 [Phenformin] (partner 250 µM)
Method in brief: as §1

| Cell Line | relative viability ([1]; first compound 0.01 µM) | relative viability ([1]; first compound 0.03162 µM) | relative viability ([1]; first compound 0.1 µM) | relative viability ([1]; first compound 0.3162 µM) | relative viability ([1]; first compound 1 µM) | relative viability ([2]; first compound 0.01 µM) | relative viability ([2]; first compound 0.03162 µM) | relative viability ([2]; first compound 0.1 µM) | relative viability ([2]; first compound 0.3162 µM) | relative viability ([2]; first compound 1 µM) | relative viability ([3]; first compound 0.01 µM) | relative viability ([3]; first compound 0.03162 µM) | relative viability ([3]; first compound 0.1 µM) | relative viability ([3]; first compound 0.3162 µM) | relative viability ([3]; first compound 1 µM) | relative viability (BAM7 + Phenformin; first compound 0.5 µM) | relative viability (BAM7 + Phenformin; first compound 5 µM) | relative viability (BAM7 + Phenformin; first compound 15.81 µM) | relative viability (BAM7 + Phenformin; first compound 50 µM) |
| --- | --- | --- | --- | --- | --- | --- | --- | --- | --- | --- | --- | --- | --- | --- | --- | --- | --- | --- | --- |
| NCI-H358 | 0.332 | 0.364 | 0.364 | 0.318 | 0.32 | 0.766 | 0.691 | 0.787 | 0.629 | 0.662 | 0.145 | 0.133 | 0.132 | 0.115 | 0.104 | 0.343 | 0.383 | 0.369 | 0.376 |
| NCI-H441 | 0.472 | 0.494 | 0.522 | 0.486 | 0.466 | 0.786 | 0.85 | 0.937 | 0.614 | 0.663 | 0.435 | 0.39 | 0.452 | 0.397 | 0.378 | 0.866 | 1.1 | 0.779 | 0.923 |
| NCI-H460 | 0.426 | 0.314 | 0.203 | 0.306 | 0.203 | 0.722 | 0.857 | 0.757 | 0.64 | 0.767 | 0.171 | 0.121 | 0.145 | 0.0808 | 0.105 | 0.521 | 0.573 | 0.513 | 0.534 |
| NCI-H520 | 0.332 | 0.345 | 0.249 | 0.241 | 0.272 | 0.706 | 0.711 | 0.585 | 0.543 | 0.5 | 0.645 | 0.789 | 0.574 | 0.322 | 0.2 | 0.668 | 0.573 | 0.704 | 0.707 |
| NCI-H596 | 0.398 | 0.344 | 0.366 | 0.377 | 0.436 | 0.569 | – | 0.553 | 0.58 | 0.633 | 0.797 | – | 0.821 | 0.785 | 0.878 | 0.751 | 0.804 | 0.705 | 0.811 |
| NCI-H647 | 0.366 | 0.468 | 0.23 | 0.368 | 0.44 | 0.616 | 0.491 | 0.603 | 0.358 | 0.587 | 0.481 | 0.493 | 0.475 | 0.364 | 0.323 | 0.54 | 0.443 | 0.539 | 0.591 |
| NCI-H650 | 0.867 | 0.96 | 0.968 | 0.521 | 0.758 | 0.435 | 0.384 | 0.393 | 0.423 | 0.396 | 0.934 | 0.977 | 0.938 | 0.897 | 1.07 | 0.443 | 0.506 | 0.499 | 0.495 |
| NCI-H661 | 0.368 | 0.564 | 0.299 | 0.385 | 0.401 | 0.787 | 0.788 | 0.788 | 0.742 | 0.735 | 0.52 | 0.615 | 0.521 | 0.491 | 0.569 | 0.241 | 0.258 | 0.264 | 0.298 |
| NCI-H727 | 0.441 | 0.355 | 0.275 | 0.43 | 0.315 | 1.28 | 1.12 | 1.19 | 1.09 | 1.26 | 0.391 | 0.359 | 0.336 | 0.347 | 0.371 | 0.42 | – | 0.576 | 0.603 |
